Test results taken from patent US12589103B2, “Antimicrobial and antiviral effects of C2-C7 alkyl boronic acids” (CORNELL UNIVERSITY, priority 2019, dated 2026).

Experiments:
[1] = DSS induced colitis in mice; assay type: in vivo, C57BL mice; conditions: 40 mM in drinking water after DSS (3%)
Procedure: On the basis of favorable in vivo toxicity tests, the ability of BA and EBA to reduce the severity of inflammation in murine models of microbially driven IBD was tested. The effect of BA and EBA (40 mM) on intestinal inflammation was evaluated in mice with dextran sodium sulfate (“DSS”) induced colitis. The DSS model has a complex etiopathogenesis that involves host-immune and inflammatory responses and the enteric microbiome BA To test their protecting ability to the gastrointestinal tract, boric and ethylboronic acid were given to C57BL mice at 40 mM concentration respectively in drinking water after DSS (3%) treatment. Body weight and fecal samples were taken before and after 6-day treatment. At the 6th day, all mice were euthanized for gross necropsy and histopathology. Intestinal sections were collected and embedded for pathological and FISH analysis. Fecal samples were used for 16s and lipocalin analysis.

[2] = tested on: cancer associated E. coli (HM288); test: Growth in M9 media; conditions: EBA 10-40 mM
[3] = assay type: in vivo, mouse
Excerpt: This novel observation of an anti-inflammatory effect of EBA was corroborated in subsequent collaborative studies. […] These experiments confirm that EBA has an anti-inflammatory effect in two distinct murine models of microbially driven IBD.

[4] = 8-week toxicity study in mice, drinking water; assay type: in vivo, C57/B18 mice
Procedure: The toxicity of boric and ethylboronic acids were examined with C57/B18 mice. At concentrations of 0, 10, 20, and 40 mM, the two chemicals were given to each group (6 mice) in drinking water. The body weight of each mouse was recorded weekly for 8 weeks, and fecal samples were also collected weekly for 16s sequencing. All animals were sacrificed at the end of 8th week. The length of whole intestine and ileum of each mouse was measured, and sections of the intestine (i. e. small intestine, ileum, cecum, and large intestine) were taken for histopathological and FISH analysis. Fecal samples were used for 16s and lipocalin analysis.
For lipocalin analysis, mouse fecal pellets were collected and frozen at −80 C during toxicity study. To determine lipocalin activity fecal pellets were diluted in microfuge tubes 1/30 with 0.1% Tween20/PBS and vortexed for 20 min at maximum speed. Undissolved particles were removed by centrifuging at 12,000 rpm for 10 min at 4 C. Supernatant was removed and placed into a clean microfuge tube. Lipocalin activity was determined using Mouse Lipocalin-2/NGAL DuoSet ELISA Kit (R&D Systems, DY1857) per manufacturer's instructions.

[5] = tested on: enteric pathogens (E. coli, Salmonella, Listeria monocytogenes, Klebsiella); test: Bacterial growth panel, OD600 growth-curve AUC ratio (heat map); assay type: cell-based
[6] = tested on: Salmonella; test: Soft agar motility assay, Salmonella; assay type: cell-based; conditions: % motility of the control
Procedure: The ability of ABA C1-3 and BA to impact the motility of E. coli and Salmonella was evaluated using sloppy agar treated with and without BA and C1-C3 alkyl boronic acids. Motility is strongly linked to the virulence phenotype of these bacterial strains. E. coli was grown overnight at 37° C. in LB broth. Soft agar plates (1% tryptone, 0.5% NaCl, 0.25% agar) were prepared the day before the assay was carried out. Sterile NaCl (control), boric or boronic acid stock solution was added into the agar right before pouring the plates. The overnight cultures of E. coli were transferred (3 μl) on to the center of each plate, followed by incubation of the plates at 37° C. for 10 h. E. coli motility was quantified by measuring the diameter of the circular swarming area formed by the growing motile bacteria.

## CCB(O)O [EBA, ethyl boronic acid]
[1]
  colon length in DSS colitis versus control mice: not significantly different
  fecal lipocalin levels in DSS colitis versus control mice: not significantly different
  intestinal bleeding in DSS colitis: absent
[2]
  inhibition of growth of cancer associated E. coli HM288: effective
[3]; SIHUMI colonized 11-10−/− mouse
  intestinal inflammation, fecal lipocalin and histopathology: markedly reduced intestinal inflammation
[3]; mouse, in vivo
  adverse or pro-inflammatory effects: no adverse or pro-inflammatory effects
[4]; 40 mM
  adverse effects in mice: safely administered to mice without adverse effects
[4]; mouse, in vivo
  fecal 16S profiles: not significantly different from control mice
[5]; 40 mM (BA, EBA, PBA), 20 mM (BBA), 10 mM (PeBA), 5 mM (HBA, SBA), 1 mM (OBA), 0.5 mM (DBA), 2 mM (DoDBA), 20 mM (FMPBA), 24-48 hrs
  antibacterial activity / potency against enteric pathogens (growth, AUC+test compound:AUC−test compound): higher potency against enteropathogens
[5]; growth panel
  selectivity for Gram Negative enteropathogens: highest
[6]
  motility of Salmonella: highly effective at blocking motility of Salmonella
